The values that follow are results of earlier work, collected in article PMC12833858 (Journal of Medicinal Chemistry, 2026).

Usually Kd stands for a measure of binding affinity in units of concentration.

For data set [1], the target named is T1, Aurora A (Homo sapiens, UniProt O14965).
T1 sequence (O14965 1-403): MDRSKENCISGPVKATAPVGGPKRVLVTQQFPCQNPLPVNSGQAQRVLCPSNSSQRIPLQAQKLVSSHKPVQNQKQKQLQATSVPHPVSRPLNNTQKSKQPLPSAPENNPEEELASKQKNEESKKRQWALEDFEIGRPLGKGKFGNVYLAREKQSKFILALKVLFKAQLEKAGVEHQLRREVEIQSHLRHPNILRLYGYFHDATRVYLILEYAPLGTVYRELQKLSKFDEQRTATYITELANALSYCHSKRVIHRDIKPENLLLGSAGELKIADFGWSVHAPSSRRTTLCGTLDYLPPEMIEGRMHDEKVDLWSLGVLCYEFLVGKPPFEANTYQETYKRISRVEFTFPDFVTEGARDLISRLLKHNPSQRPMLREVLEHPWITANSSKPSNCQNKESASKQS
More on the design: method as in Adhikari et al. Conditions: isothermal titration calorimetry, n = 4; ref Adhikari et al.; read-out: KD Aurora A (ITC).

In data set [2] the target is T1, Aurora A. On the set-up: expressed in transfected cells. The following applies: reported value, HiBiT assay in MV4-11 pediatric leukemia cells. A general note: With HiBiT, luminescence reflects the tagged protein that the partner subunit can reach.

In the case of `COc1cc(Nc2ncc3c(n2)-c2ccc(Cl)cc2C(c2c(F)cccc2OC)=NC3)ccc1C(=O)NCCOCCOCCNC(=O)COc1cccc2c1C(=O)N(C1CCC(=O)NC1=O)C2=O` (centres unmarked) [JB170], the Kd at Aurora A [1] is 375 ± 22 nM. Also, on Aurora A [2], the DC50 is 28 nM.
